Assay results: patent publication US11840528B2 (Hoffmann-La Roche Inc., priority 2018, dated 2023)

Legend:
[1] = biological target: T1, h-GABA-A α5β3γ2 (Homo sapiens, UniProt P18507+P31644); experiment: Two-electrode voltage clamp electrophysiology in Xenopus laevis oocytes expressing GABAA receptors, modulation of GABA EC20 current; format: cell-based; set-up: host or cells: Xenopus laevis oocytes micro-injected with RNA transcripts of the subunits; conditions: Table 1; for Efficacy (GABA) %: % modulation of GABA EC20 = 100*(Fold increase-1); for Fold increase h-GABA-A α5β3γ2 oocyte: test compound at approx. 30 fold its Ki, GABA at EC20
Protocol: Xenopus laevis oocytes at maturation stages V-VI were used for the expression of cloned mRNA encoding GABAA receptor subunits. Oocytes ready for RNA micro-injection were bought from Ecocyte, Castrop-Rauxel, Germany and stored in modified Barth's medium (composition in mM: NaCl 88, KCl 1, NaHCO32.4, HEPES 10, MgSO4 0.82, CaNO3 0.33, CaCl2 0.33, pH=7.5) at 20° C. until the experiment.
Oocytes were plated in 96-well plates to be used in an automated instrument (Robo-ocyte, MultiChannelSystems, Reutlingen, Germany) for microinjection and electrophysiological recordings. Approximately 50 nl of an aqueous solution containing the RNA transcripts for the subunits of the desired GABAA receptor was injected into each oocyte. RNA concentrations ranged between 0.3 and 16 ng/μl/subunit and were adjusted in pilot experiments to obtain GABA responses of a suitable size and a maximal effect of the reference modulator, Beta-CCM (β-CCM), a betacarboline negative allosteric modulator (NAM) at the GABAA receptor benzodiazepine (BZD) binding site or Midazolam, a benzodiazepine positive allosteric modulator (PAM) at the GABAA receptor benzodiazepine (BZD) binding site. The concentration of the γ2 subunit encoding RNA usually was 5- to 10-fold higher than the RNAs encoding the other subunits. Oocytes were kept in modified Barth's medium (composition in mM: NaCl 88, KCl 1, NaHCO3 4, HEPES 10, MgSO4 0.82, CaNO3 0.33, CaCl2) 0.33, pH=7.5) at 20° C. until the experiment.
Electrophysiological experiments were performed on days 3 to 5 after the micro-injection of mRNA. During the experiment the oocytes were constantly superfused by a solution containing (in mM) NaCl 90, KCl 1, HEPES 5, MgCl2 1, CaCl2) 1 (pH 7.4). Oocytes were impaled by two glass microelectrodes (resistance: 0.4 MΩ) which were filled with a solution containing KCl 1M+K-acetate 1.5 M and voltage-clamped to −80 mV. The recordings were performed at room temperature using the Roboocyte two-electrode voltage clamp system (Multichannelsystem). After an initial equilibration period of 1.5 min GABA was added for 1.5 min at a concentration evoking approximately 20% of a maximal current response (EC20). After another rest interval of 2.5 min GABA was again added evoking a response of similar amplitude and shape. 0.5 min after the onset of this second GABA application the test compound, at a concentration corresponding to approximatively 30 fold its Ki, was added while GABA was still present. Current traces were recorded at a digitization rate of 10 Hz during and shortly before and after the GABA application.
Each compound and concentration was tested on at least 3 oocytes. Different oocytes were used for different compound concentrations. β-CCM, a negative allosteric modulator, or Midazolam, a positive allosteric modulators, were tested on a few (3-6) oocytes on each 96-well plate for a positive control at a maximally effective. β-CCM inhibited the GABA-evoked current by approximatively 50% (Fold increase ˜0.5), while Midazolam potentiated the GABA-induced current by approximatively 150% (Fold increase ˜2.5).
For the analysis, the digitized current traces of the first and second GABA response were superimposed and, if necessary, rescaled to equal maximal amplitudes. The ratio between the two responses during the time interval of test compound application was calculated point by point. The extremum of the resulting “ratio trace” was taken as the efficacy (“Fold increase”) of the compound expressed as “% modulation of GABA EC20” (100*(Fold increase-1)).

[2] = biological target: T1, h-GABA-A α5β3γ2; experiment: [3H]flumazenil competition binding assay, membranes of HEK293 cells expressing GABAA receptors; conditions: displacement of [3H]-Flumazenil 0.5 nM, HEK293 cells expressing human receptors, mean of two determinations; Table 1
Protocol: The affinity of compounds at GABAA receptor subtypes was measured by competition for [3H]flumazenil (85 Ci/mmol; Roche) binding to HEK293 cells expressing rat (stably transfected) or human (transiently transfected) receptors of composition α1β3γ2, α2β3γ2, α3β3γ2 and α5β3γ2.
Cell pellets were suspended in Krebs-tris buffer (4.8 mM KCl, 1.2 mM CaCl2), 1.2 mM MgCl2, 120 mM NaCl, 15 mM Tris; pH 7.5; binding assay buffer), homogenized by polytron for ca. 20 sec on ice and centrifuged for 60 min at 4° C. (50000 g; Sorvall, rotor: SM24=20000 rpm). The cell pellets were resuspended in Krebs-tris buffer and homogenized by polytron for ca. 15 sec on ice. Protein was measured (Bradford method, Bio-Rad) and aliquots of 1 mL were prepared and stored at −80° C.
Assays were incubated to equilibrium for 1 hour at 4° C. and harvested onto GF/C uni-filters (Packard) by filtration using a Packard harvester and washing with ice-cold wash buffer (50 mM Tris; pH 7.5). After drying, filter-retained radioactivity was detected by liquid scintillation counting. Ki values were calculated using Excel-Fit (Microsoft) and are the means of two determinations.

| Efficacy (GABA) % [1] | Fold increase h-GABA-A α5β3γ2 oocyte [1] | Ki [2] | Structure (SMILES) |
| --- | --- | --- | --- |
| 142% | 2.42 | 1.2 nM | Cc1ccc(-c2noc(C)c2Cn2ncc(N3CCC(n4ccnc4C)CC3)cc2=O)cn1 [Example 110, 5-[4-(2-methylimidazol-1-yl)-1-piperidyl]-2-[[5-methyl-3-(6-methyl-3-pyridyl)isoxazol-4-yl]methyl]pyridazin-3-one] |
| 87% | 1.87 | 10.4 nM | Cc1ccc(-c2noc(C)c2Cn2ncc(-c3ccc(OC(C)C)cc3)cc2=O)cn1 [Example 115, 5-(4-isopropoxyphenyl)-2-((5-methyl-3-(6-methyl-3-pyridyl)isoxazol-4-yl)methyl)pyridazin-3-one] |
| 86% | 1.86 | 18.6 nM | Cc1ccc(-c2noc(C)c2Cn2ncc(N3CC4(C[C@@H](F)CO4)C3)cc2=O)cn1 [Example 200, 5-[(7R)-7-fluoro-5-oxa-2-azaspiro[3.4]octan-2-yl]-2-[[5-methyl-3-(6-methyl-3-pyridyl)isoxazol-4-yl]methyl]pyridazin-3-one] |
| 145% | 2.45 | 13.8 nM | Cc1ccc(-c2noc(C)c2Cn2ncc(N3CCN(C4CC4)CC3)cc2=O)cn1 [Example 36, 5-(4-cyclopropylpiperazin-1-yl)-2-[[5-methyl-3-(6-methyl-3-pyridyl)isoxazol-4-yl]methyl]pyridazin-3-one] |
| 110% | 2.1 | 10.6 nM | Cc1ccc(-c2noc(C)c2Cn2ncc(N3CC[C@@H](O)C3)cc2=O)cn1 [Example 3, 5-[(3R)-3-hydroxypyrrolidin-1-yl]-2-[[5-methyl-3-(6-methyl-3-pyridyl)isoxazol-4-yl]methyl]pyridazin-3-one] |
| 40% | 1.4 | 18.8 nM | Cc1onc(-c2ccc(Cl)cc2)c1Cn1ncc(N2CC3(CCCO3)C2)cc1=O [Example 162, 2-[[3-(4-chlorophenyl)-5-methyl-isoxazol-4-yl]methyl]-5-(5-oxa-2-azaspiro[3.4]octan-2-yl)pyridazin-3-one] |
| 110% | 2.1 | 22.9 nM | Cc1ccc(-c2noc(C)c2Cn2ncc(N(C)C3CN(C4CC4)C3)cc2=O)cn1 [Example 137, 5-((1-cyclopropylazetidin-3-yl)(methyl)amino)-2-((5-methyl-3-(6-methylpyridin-3-yl)isoxazol-4-yl)methyl)pyridazin-3(2H)-one] |
| 140% | 2.4 | 38.8 nM | Cc1onc(-c2ccc(C(F)(F)F)nc2)c1Cn1ncc(N2CC(OCC(F)F)C2)cc1=O [Example 244, 5-[3-(2,2-difluoroethoxy)azetidin-1-yl]-2-[[5-methyl-3-[6-(trifluoromethyl)-3-pyridyl]isoxazol-4-yl]methyl]pyridazin-3-one] |
| 160% | 2.6 | 15.1 nM | Cc1ccc(-c2noc(C)c2Cn2ncc(N3CC4(C[C@H](OC(F)F)CO4)C3)cc2=O)cn1 [Example 204, 5-[(7S)-7-(difluoromethoxy)-5-oxa-2-azaspiro[3.4]octan-2-yl]-2-[[5-methyl-3-(6-methyl-3-pyridyl)isoxazol-4-yl]methyl]pyridazin-3-one] |
| 123% | 2.23 | 24.2 nM | COc1ccc(-c2cnn(Cc3c(-c4ccc(C)nc4)noc3C)c(=O)c2)cn1 [Example 81, 5-(6-methoxypyridin-3-yl)-2-((5-methyl-3-(6-methylpyridin-3-yl)isoxazol-4-yl)methyl)pyridazin-3(2H)-one] |
| 110% | 2.1 | 15.8 nM | Cc1ccc(-c2noc(C)c2Cn2ncc(N3CC4(CC(F)CCO4)C3)cc2=O)cn1 (single isomer, unassigned) [Example 274] |
